# Measured values taken from patent US20250041329A1, “ACIDIC POLYMER COMPOSITIONS AND METHODS OF USE THEREOF” (NexEos Diagnostics, Inc., priority 2023, published 2025).
# Read-outs that look alike come from different tables or passages of the source.
# T1: eMBP1 (Homo sapiens, UniProt P13727)
# T1 construct: the pro-piece is removed during granule maturation in the eosinophilic leukocyte to convert pro-eMBP1 to eMBP1
# T1 sequence (P13727 106-222): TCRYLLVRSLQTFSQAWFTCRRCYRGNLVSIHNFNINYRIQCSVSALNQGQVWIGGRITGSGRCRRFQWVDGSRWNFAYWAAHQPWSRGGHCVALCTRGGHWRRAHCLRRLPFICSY
# B1: eMBP1: eosinophil major basic protein-1, 13.8 kDa single polypeptide of the eosinophil granule core; stimulus in the assays (protein, UniProt P13727 17-222, looked up)
# Bone marrow proteoglycan: LHLRSETSTFETPLGAKTLPEDEETPEQEMEETPCRELEEEEEWGSGSEDASKKDGAVESISVPDMVDKNLTCPEEEDTVKVVGIPGCQTCRYLLVRSLQTFSQAWFTCRRCYRGNLVSIHNFNINYRIQCSVSALNQGQVWIGGRITGSGRCRRFQWVDGSRWNFAYWAAHQPWSRGGHCVALCTRGGHWRRAHCLRRLPFICSY
# modifications: Bone marrow proteoglycan
# notes: eosinophil major basic protein-1, 13.8 kDa single polypeptide of the eosinophil granule core; stimulus in the assays
# What was measured:
# [1] = cited from earlier work
# eMBP1 [2] = target: T1, eMBP1; assay: eMBP1 neutralization assay; assay type: cell-based; settings: for Hill Slope: eMBP1 neutralization curve fit; for IC50: eMBP1 neutralization potency
# Description: Methods: The goal of the investigation is to design and test a peptide product to neutralize and, thus, mitigate toxic effects of eosinophil granule proteins as a treatment for eosinophil-related diseases. Specifically, one aim is to test various polymers of acidic amino acids (i.e., glutamate and aspartate) for their ability to neutralize eMBP1 and compare their potencies to those of the pro-piece of pro-eosinophil major basic protein 1 (pro-eMBP1) as well as various heparins, i.e., low molecular weight heparin, high molecular weight heparin, and unfractionated heparin.
# Because pro-piece (PP) can neutralize the toxicity of eMBP1, we reasoned that a careful study of the carbohydrate and acidic peptide structures might elucidate the comparative functions of these domains and lead to an effective eMBP1 inhibitor. We obtained heparins and polymers of the acidic amino acids, glutamic and aspartic, and compared their potencies in the eMBP1 neutralization assay.
# eMBP1 [3] = target: T1, eMBP1; assay: Inhibition of eMBP1-stimulated histamine release from mast cells; assay type: cell-based; settings: each inhibitor 50 μg/ml; eMBP1 10^−6 M; rat peritoneal mast cells; FIGS. 3A-3B
# Description: (§1) Methods: To determine if the compounds shown in Table 2 had the ability to inhibit eMBP1 in a different assay, the compounds were tested for their ability to inhibit eMBP1-stimulated histamine release from mast cells. Peritoneal cells from male rats were harvested, enriched by centrifugation through a cushion of 38% bovine serum albumin (with purities up to about 90%), and stimulated with eMBP1. As expected from previous work, eMBP1 at a concentration of 10^−6 M stimulated histamine release. Specifically, approximately 63% of total histamine was released (as determined by boiling the rat mast cells), and 84% was released in comparison to the amount released by compound 48/80 at 0.1 μg/ml.
# In order to test inhibition of eMBP1-stimulated histamine release, each inhibitor was provided as a concentration of 50 μg/ml. Polyglutamic acid (Sigma P4761) in the molecular weight range of 15-50 kDa was utilized for testing.
# mast cells = assay: Histamine release from mast cells stimulated with eMBP1; assay type: cell-based, rat; settings: eMBP1 10^−6 M
# Description: as §1
# [4] = IC50 molar concentration, read-out: IC50
Molecule,Hill Slope (eMBP1 [2]),IC50 (eMBP1 [2]) [µg/mL],IC50 (eMBP1 [2]; [4]) [nM],also measured
"N[C@@H](CC(=O)O)C(=O)O [monomer aspartic acid, aspartic acid, reference compound]",–,–,–,"pKa [1]: about 1.92; eMBP1 inhibitory activity (in words) (eMBP1 [2]; eMBP1 neutralization, Table 2 / FIG. 1): devoid of eMBP1 inhibitory activity"
Polyglutamic acid,–,–,–,inhibition of eMBP1-stimulated histamine release (eMBP1 [3]): roughly comparably and more potently than unfractionated heparin and both glycosylated and unglycosylated pro-piece
α poly-D-glutamic acid,2.445,5.197,157,–
α poly-L-aspartic acid [α poly-L-Asp 1.15 kDa],2.808,14.3,12400,–
α poly-L-aspartic acid [α poly-L-Asp 5.75 kDa],2.929,4.817,838,–
α poly-L-aspartic acid [α poly-L-Asp 23 kDa],3.061,4.301,187,–
α poly-L-glutamic acid [α poly-L-Glu 2.6 kDa],2.581,6.965,2680,–
α poly-L-glutamic acid [α poly-L-Glu 7.5 kDa],3.202,6.158,821,–
α poly-L-glutamic acid [α poly-L-Glu 9 kDa],3.499,5.961,662,–
α poly-L-glutamic acid [α poly-L-Glu 33 kDa],2.786,5.118,155,–
α poly-L-glutamic acid [α poly-L-Glu 120 kDa],2.621,4.525,37.7,–
γ polyglutamic acid [γ poly-Glu 1.2 kDa],2.177,19.6000,16300,–
γ polyglutamic acid [γ poly-Glu <10 kDa],2.534,4.62,> 462,–
γ polyglutamic acid [γ poly-Glu >700 kDa],11.5,3.317,< 4.74,–
B1,–,–,–,"histamine released in comparison to the amount released by compound 48/80 (mast cells; compound 48/80 at 0.1 μg/ml): 84%; histamine released, of total histamine (mast cells; total determined by boiling the rat mast cells): approximately 63%"
